Data taken from the NIST ThermoML archive (doi:10.1016/j.jct.2007.06.002).
Where “and” joins values, the source holds several entries; their conditions need not be identical. Equal entries are not always repeated. Numbers after ± are expanded uncertainties.

Assays:
[1] = refractive index (Na D-line) (dimensionless); xn = mol fraction of the nth substance listed; settings: 298.15 K, 101 kPa, Liquid
[2] = xn = mol fraction of the nth substance listed; settings: 101 kPa, Liquid
[3] = 101 kPa, Liquid
[4] = refractive index (Na D-line) (dimensionless); settings: 298.15 K; 101.33 kPa; Liquid

COCCOC [1,2-dimethoxyethane] + CCCCn1cc[n+](C)c1.F[P-](F)(F)(F)(F)F
[1]
Settings	refractive index
x2 = 0	1.379 ± 0.0013
x2 = 0.0041	1.3781 ± 0.0013
x2 = 0.0125	1.3798 ± 0.0013
x2 = 0.0416	1.3859 ± 0.0013
x2 = 0.1055	1.3926 ± 0.0013
x2 = 0.1219	1.3941 ± 0.0013
x2 = 0.2474	1.4009 ± 0.0013
x2 = 0.3744	1.4043 ± 0.0013
x2 = 0.4937	1.4062 ± 0.0013
x2 = 0.7092	1.4076 ± 0.0013
x2 = 0.9329	1.4087 ± 0.0013

mass density [kg/m3], [2]
Settings	x2 = 0	x2 = 0.0125	x2 = 0.0416	x2 = 0.1055	x2 = 0.1219	x2 = 0.2474	x2 = 0.3744	x2 = 0.4937	x2 = 0.7092	x2 = 0.9329
298.15 K	864.47 ± 1.5	879.28 ± 1.4	912.09 ± 1.2	976.53 ± 0.91	991.51 ± 0.85	1089.14 ± 1.4	1164.22 ± 2	1219.89 ± 2.5	1296.36 ± 3.3	1353.78 ± 4.1
308.15 K	853.47 ± 1.6	868.36 ± 1.5	901.37 ± 1.3	966.23 ± 0.96	981.31 ± 0.89	1079.57 ± 1.4	1155.09 ± 2	1211.03 ± 2.5	1287.72 ± 3.3	1345.27 ± 4
318.15 K	842.27 ± 1.6	857.25 ± 1.6	890.47 ± 1.4	955.79 ± 1	971 ± 0.94	1069.97 ± 1.3	1145.98 ± 1.9	1202.22 ± 2.4	1279.25 ± 3.2	1336.85 ± 4

COCCO [2-methoxyethan-1-ol] + CCCCn1cc[n+](C)c1.F[P-](F)(F)(F)(F)F
Settings	refractive index
[1], x2 = 0	1.4004 ± 0.0013

[2], x2 = 0
Settings	mass density [kg/m3]
298.15 K	960.05 ± 6
308.15 K	950.81 ± 6.5
318.15 K	941.45 ± 6.9

COCCO [2-methoxyethan-1-ol]
[3]
Settings	mass density [kg/m3]
298.15 K	960.05 ± 6
308.15 K	950.81 ± 6.5
318.15 K	941.45 ± 6.9

Settings	refractive index
[4]	1.4004 ± 0.0013

CCCCn1cc[n+](C)c1.F[P-](F)(F)(F)(F)F [1-butyl-3-methylimidazolium hexafluorophosphate] + COCCO
[1]
Settings	refractive index
x1 = 0.0037	1.4006 ± 0.0013
x1 = 0.0078	1.401 ± 0.0013
x1 = 0.012	1.4013 ± 0.0013
x1 = 0.0354	1.403 ± 0.0013
x1 = 0.0801	1.405 ± 0.0013
x1 = 0.1468	1.4065 ± 0.0013
x1 = 0.2542	1.4078 ± 0.0013
x1 = 0.396	1.4083 ± 0.0013
x1 = 0.6104	1.4086 ± 0.0013
x1 = 0.8127	1.4086 ± 0.0013
x1 = 0.8961	1.4089 ± 0.0013
x1 = 0.9345	1.409 ± 0.0013
x1 = 0.9749	1.409 ± 0.0013
x1 = 1	1.4089 ± 0.0013

mass density [kg/m3], [2]
Settings	298.15 K	308.15 K	318.15 K
x1 = 0.0037	964.55 ± 5.8	962.53 ± 5.9	945.96 ± 6.7
x1 = 0.0078	969.43 ± 5.5	967.34 ± 5.7	950.88 ± 6.5
x1 = 0.012	974.36 ± 5.3	972.19 ± 5.4	955.82 ± 6.2
x1 = 0.0354	1000.13 ± 4	997.66 ± 4.2	981.7 ± 4.9
x1 = 0.0801	1042.78 ± 6.2	1039.97 ± 6	1024.48 ± 5.3
x1 = 0.1468	1094.24 ± 8.8	1091.12 ± 8.7	1076.09 ± 7.9
x1 = 0.2542	1157.35 ± 12	1153.41 ± 12	1139.53 ± 11
x1 = 0.396	1219.08 ± 15	1213.6 ± 15	1201.72 ± 14
x1 = 0.6104	1284.64 ± 19	1277.88 ± 19	1267.48 ± 18
x1 = 0.8127	1328.13 ± 21	1320.65 ± 21	1311.1 ± 21
x1 = 0.8961	1344.77 ± 22	1336.68 ± 22	1327.9 ± 22
x1 = 0.9345	1352.85 ± 23	1344.49 ± 23	1336 ± 22
x1 = 0.9749	1361.9 ± 24	1353.35 ± 23	1344.99 ± 23
x1 = 1	1367.88 ± 24	1359.33 ± 23	1350.87 ± 23

COCCOCCOC [2,5,8-trioxanonane]
[3]
Settings	mass density [kg/m3]
298.15 K	939.1 ± 1.1
308.15 K	929.6 ± 1.1
318.15 K	919.3 ± 1.2

Settings	refractive index
[4]	1.4058 ± 0.0025

CCCCn1cc[n+](C)c1.F[P-](F)(F)(F)(F)F [1-butyl-3-methylimidazolium hexafluorophosphate]
[3]
Settings	mass density [kg/m3]
298.15 K	1367.88 ± 24
308.15 K	1359.33 ± 23
318.15 K	1350.87 ± 23

Settings	refractive index
[4]	1.4089 ± 0.0013 and 1.4058 ± 0.0025

COCCOC [1,2-dimethoxyethane]
[3]
Settings	mass density [kg/m3]
298.15 K	864.47 ± 1.5
308.15 K	853.47 ± 1.6
318.15 K	842.27 ± 1.6

Settings	refractive index
[4]	1.379 ± 0.0013

COCCOCCOC [2,5,8-trioxanonane] + CCCCn1cc[n+](C)c1.F[P-](F)(F)(F)(F)F
[1]
Settings	refractive index
x2 = 0	1.4058 ± 0.0025
x2 = 0.0039	1.4063 ± 0.0025
x2 = 0.0076	1.4065 ± 0.0025
x2 = 0.0127	1.407 ± 0.003
x2 = 0.0304	1.4081 ± 0.0025
x2 = 0.0505	1.4092 ± 0.0025
x2 = 0.1003	1.4113 ± 0.0025
x2 = 0.1617	1.4141 ± 0.0025
x2 = 0.207	1.4149 ± 0.0025
x2 = 0.3024	1.4148 ± 0.0025
x2 = 0.4018	1.4142 ± 0.0025
x2 = 0.5023	1.4138 ± 0.0025
x2 = 0.5623	1.4123 ± 0.0025
x2 = 0.7197	1.4098 ± 0.0025
x2 = 0.9477	1.4094 ± 0.0025
x2 = 0.9842	1.4089 ± 0.0025

mass density [kg/m3], [2]
Settings	298.15 K	308.15 K	318.15 K
x2 = 0	939.1 ± 1.1	929.6 ± 1.1	919.3 ± 1.2
x2 = 0.0039	942.16 ± 1.1	932.57 ± 1.1	922.34 ± 1.2
x2 = 0.0076	945.03 ± 1	935.37 ± 1.1	925.2 ± 1.1
x2 = 0.0127	948.97 ± 1	939.22 ± 1.1	929.13 ± 1.1
x2 = 0.0304	962.27 ± 0.94	952.3 ± 1	942.43 ± 1.1
x2 = 0.0505	976.74 ± 0.88	966.73 ± 0.93	957.03 ± 0.97
x2 = 0.1003	1010.23 ± 0.85	1000.46 ± 0.79	990.93 ± 0.83
x2 = 0.1617	1047.81 ± 1.1	1038.53 ± 1	1028.98 ± 0.98
x2 = 0.207	1073.6 ± 1.3	1064.59 ± 1.2	1055.02 ± 1.2
x2 = 0.3024	1124.55 ± 1.7	1115.44 ± 1.6	1106.04 ± 1.6
x2 = 0.4018	1173.96 ± 2.1	1164.58 ± 2.1	1155.65 ± 2
x2 = 0.5023	1219.47 ± 2.5	1210.5 ± 2.5	1202.05 ± 2.4
x2 = 0.5623	1243.6 ± 2.8	1235.27 ± 2.7	1226.97 ± 2.6
x2 = 0.7197	1292.24 ± 3.3	1286.05 ± 3.3	1277.69 ± 3.2
x2 = 0.9477	1345.16 ± 4	1336.93 ± 4	1328.47 ± 3.9
x2 = 0.9842	1359.24 ± 4.2	1351.31 ± 4.1	1342.85 ± 4.1
x2 = 0.9952	1365.36 ± 4.3	1356.87 ± 4.2	1348.47 ± 4.1

CCCCn1cc[n+](C)c1.F[P-](F)(F)(F)(F)F [1-butyl-3-methylimidazolium hexafluorophosphate] + COCCOCCOC
Settings	refractive index
[1], x1 = 1	1.4058 ± 0.0025

[2], x1 = 1
Settings	mass density [kg/m3]
298.15 K	1367.88 ± 4.3
308.15 K	1359.33 ± 4.2
318.15 K	1350.87 ± 4.2

CCCCn1cc[n+](C)c1.F[P-](F)(F)(F)(F)F [1-butyl-3-methylimidazolium hexafluorophosphate] + COCCOC
Settings	refractive index
[1], x1 = 1	1.4089 ± 0.0013

[2], x1 = 1
Settings	mass density [kg/m3]
298.15 K	1367.88 ± 4.3
308.15 K	1359.33 ± 4.2
318.15 K	1350.87 ± 4.2
